From patent publication US8129361B2, “Amine compound and pharmaceutical use thereof” (Mitsubishi Tanabe Pharma Corporation, priority 2007, dated 2012) come the findings set out here.

Broadly, the ED50 is the midpoint of the dose-response relation.

Holding throughout (type): in vivo
The subject of data set [1] is heart rate in rat under anesthesia. Kind of data set: Action on heart rate in rat under anesthesia (intravenous administration). The following applies: anesthetized male Sprague-Dawley (IGS) rats, intravenous over 30 sec, up to the dose of 0.03 mg/kg body weight, 1-15 minutes after administration. On the procedure:
Action on Heart Rate in Rat Under Anesthesia
Male Sprague-Dawley (IGS) rats were anesthetized by intraperitoneal administration of Nembutal (manufactured by Dainippon Sumitomo Pharma Co., Ltd.), and fixed at the dorsal position. Electrodes were mounted on four limbs, and the electrocardiogram was measured according to Standard Limb Lead II using an electrocardiogram amplifier (AC-601G, manufactured by NIHON KOHDEN CORPORATION). With the electrocardiographic wave as a trigger, the heart rate was measured with an instantaneous heart rate unit (AT-601G, manufactured by NIHON KOHDEN CORPORATION). The test compound was dissolved in 20% cyclodextrin (manufactured by Nihon Shokuhin Kako Co., Ltd.) and intravenously administered at a dose of 0.001-10 mg/kg body weight over 30 sec. The heart rate was measured before administration, and 1, 2, 3, 4, 5, 10 and 15 minutes after the administration.

Data set [2] relates to peripheral blood lymphocyte number. Description: Peripheral blood lymphocyte number decreasing action in rat. The following applies: male F344 rats, oral, 24 hr after administration, read-out: ED50 (dose necessary for reducing the lymphocyte count of the vehicle group (100%) by 50%).
Data set [3] shares this test system. Kind of data set: Peripheral blood lymphocyte number decreasing action in mouse. The conditions noted are these: ip, male BALB/cAnNCrj mice, intraperitoneal, 24 hr after administration, read-out: ED50 (dose necessary for reducing the lymphocyte count of the vehicle group (100%) by 50%).
For a further data set, the system named is heart rate in rat. Description: Action on heart rate in rat (telemetry, oral administration). The following applies: male Crl:CD(SD) rats, measured to 24 hr after administration. As for the experimental part:
Action on Heart Rate in Rat
Male Crl:CD(SD) rats were anesthetized by intraperitoneal administration of Nembutal (manufactured by Dainippon Sumitomo Pharma Co., Ltd.), and a pressure sensor connected to a telemetry transmitter (TL11M2-C50-PTX, manufactured by Data Sciences International) was inserted into the abdominal aorta and a transmitter was subcutaneously placed in the abdomen. The blood pressure and heart rate data were recorded by an analysis software (Dataquest A.R.T., manufactured by Data Sciences International) via a receiver (RPC-1, manufactured by Data Sciences International). After confirmation of recovery of circadian rhythm of the heart rate, the rats were subjected to the experiment. The compound of the present invention was suspended in 0.5% hydroxypropylmethylcellulose (manufactured by Shin-Etsu Chemical Co., Ltd.) and orally administered. The heart rate was measured from 72 hr before the administration to 24 hr after the administration.

Setting [4] is: up to the dose of 30 mg/kg body weight.

The structures appear in SMILES notation.

With `NC(/C=C/c1ccc(OCCCc2ccccc2F)c(C(F)(F)F)c1)(CO)COP(=O)(O)O` (stereo not drawn) [compound 193-2, (E)-2-amino-4-{4-[3-(2-fluorophenyl)propoxy]-3-trifluoromethylphenyl}-2-(phosphoryloxymethyl)-3-butenol], in data set [1], the “Effect on heart rate as compared to the value before administration” value was “did not reduce the heart rate of the rat by 20% or more”.

For `C[C@@](N)(CCc1ccc(OCCCc2ccc(C(F)(F)F)cc2)c(C(F)(F)F)c1)COP(=O)(O)O` [Compound 132-2, (R)-phosphoric acid mono(2-amino-2-methyl-4-{3-trifluoromethyl-4-[3-(4-trifluoromethylphenyl)propoxy]phenyl}butyl)ester], the “Effect on heart rate as compared to the value before administration” value in data set [1] is “did not reduce the heart rate of the rat by 20% or more”. `CC[C@](N)(CO)CCc1ccc(OCCCc2ccc(C(F)(F)F)cc2)c(C(F)(F)F)c1.Cl` [Compound 32-1, (R)-2-amino-2-ethyl-4-{3-trifluoromethyl-4-[3-(4-trifluoromethylphenyl)propoxy]phenyl}butanol hydrochloride]: in data set [2], the median effective dose (ED50) amounted to 0.02 mg/kg. For `Cl.NC(CO)(CO)CCc1ccc(OC/C=C/c2cccc(Cl)c2)c(C(F)(F)F)c1` [Compound 89-2, 2-amino-2-(2-{4-[3-(3-chlorophenyl)allyloxy]-3-trifluoromethylphenyl}ethyl)propane-1,3-diol hydrochloride], the ED50 in data set [3] was 0.04 mg/kg; in data set [2], 0.06 mg/kg. As to `Cl.NC(CO)(CO)CCc1ccc(OCCCc2ccc(C(F)(F)F)c(F)c2)c(C(F)(F)F)c1` [Compound 68-4, 2-amino-2-(2-{4-[3-(3-fluoro-4-trifluoromethylphenyl)propoxy]-3-trifluoromethylphenyl}ethyl)propane-1,3-diol hydrochloride], the results for the 50% effective dose (ED50) in data set [3] and in data set [2] were 0.04 mg/kg and 0.09 mg/kg, respectively.

Regarding `Cl.NC(CO)(CO)CCc1ccc(OCCCc2cccc(OC(F)(F)F)c2)c(C(F)(F)F)c1` [Compound 58-5, 2-amino-2-(2-{4-[3-(3-trifluoromethoxyphenyl)propoxy]-3-trifluoromethylphenyl}ethyl)propane-1,3-diol hydrochloride], the 50% effective dose (ED50) was 0.06 mg/kg in data set [3] and 0.07 mg/kg in data set [2]. Take `NC(CO)(CCc1ccc(OCCCc2ccc(C(F)(F)F)c(F)c2)c(C(F)(F)F)c1)COP(=O)(O)O` (stereo not drawn) [Compound 168-2, 2-amino-4-{4-[3-(3-fluoro-4-trifluoromethylphenyl)propoxy]-3-trifluoromethylphenyl}-2-(phosphoryloxymethyl)butanol]: in data set [1], the “Effect on heart rate as compared to the value before administration” value was “did not reduce the heart rate of the rat by 20% or more”.

With `Cl.NC(CO)(CO)CCc1ccc(OCCCc2ccc(Cl)c(Cl)c2)c(C(F)(F)F)c1` [Compound 38-5, 2-amino-2-(2-{4-[3-(3,4-dichlorophenyl)propoxy]-3-trifluoromethylphenyl}ethyl)propane-1,3-diol hydrochloride], the “Effect on heart rate” value with heart rate in rat (setting [4]) was “did not reduce the heart rate”. Further, the ED50 in data set [3] and in data set [2] was 0.07 mg/kg throughout.

Take `CC[C@](N)(CO)CCc1ccc(OCCCc2ccc(OC(F)(F)F)cc2)c(C(F)(F)F)c1.Cl` [Compound 218-2, (R)-2-amino-2-ethyl-4-{4-[3-(4-trifluoromethoxyphenyl)propoxy]-3-trifluoromethylphenyl}butanol hydrochloride]: in data set [2], the median effective dose (ED50) is 0.03 mg/kg. In the case of `CC(N)(CCc1ccc(OCCCc2ccc(Cl)c(Cl)c2)c(C(F)(F)F)c1)COP(=O)(O)O` (stereo not drawn) [Compound 209-2, phosphoric acid mono(2-amino-4-{4-[3-(3,4-dichlorophenyl)propoxy]-3-trifluoromethylphenyl}-2-methylbutyl)ester], the “Effect on heart rate as compared to the value before administration” value in data set [1] is listed as “did not reduce the heart rate of the rat by 20% or more”.

As to `Cl.NC(CO)(CO)CCc1ccc(OCCCc2ccc(OC(F)(F)F)cc2)c(C(F)(F)F)c1` [Compound 52-5, 2-amino-2-(2-{4-[3-(4-trifluoromethoxyphenyl)propoxy]-3-trifluoromethylphenyl}ethyl)propane-1,3-diol hydrochloride], the “Effect on heart rate” value in the data set on heart rate in rat (setting [4]) is listed as “did not reduce the heart rate”. Besides, the figures for the ED50 in data set [3] and in data set [2] were 0.08 mg/kg and 0.05 mg/kg, respectively. Consider `C[C@](N)(CO)CCc1ccc(OCCCc2ccc(Cl)c(Cl)c2)c(C(F)(F)F)c1.Cl` [Compound 204-1, (R)-2-amino-4-{4-[3-(3,4-dichlorophenyl)propoxy]-3-trifluoromethylphenyl}-2-methylbutanol hydrochloride], for which, in the data set on heart rate in rat (up to the dose of 10 mg/kg body weight), the “Effect on heart rate” value is given as “did not reduce the heart rate”. Also, the results for the 50% effective dose (ED50) in data set [3] and in data set [2] were 0.005 mg/kg and 0.03 mg/kg, respectively. As for `NC(CO)(CCc1ccc(OCCCc2ccc(OC(F)(F)F)cc2)c(C(F)(F)F)c1)COP(=O)(O)O` (stereo not drawn) [Compound 153-2, 2-amino-2-(phosphoryloxymethyl)-4-{4-[3-(4-trifluoromethoxyphenyl)propoxy]-3-trifluoromethylphenyl}butanol], the “Effect on heart rate as compared to the value before administration” value in data set [1] is “did not reduce the heart rate of the rat by 20% or more”.

Regarding `NC(CO)(CCc1ccc(OCCCc2cccc(OC(F)(F)F)c2)c(C(F)(F)F)c1)COP(=O)(O)O` (stereo not drawn) [Compound 158-2, 2-amino-2-(phosphoryloxymethyl)-4-{4-[3-(3-trifluoromethoxyphenyl)propoxy]-3-trifluoromethylphenyl}butanol], the “Effect on heart rate as compared to the value before administration” value in data set [1] is recorded as “did not reduce the heart rate of the rat by 20% or more”. For the compound `Cl.NC(/C=C/c1ccc(OCCCc2ccccc2)c(C(F)(F)F)c1)(CO)CO` [Compound 100-2, (E)-2-amino-2-{2-[4-(3-phenylpropoxy)-3-trifluoromethylphenyl]vinyl}propane-1,3-diol hydrochloride], the median effective dose (ED50) in data set [3] and in data set [2] was 0.07 mg/kg each time. On to `CCC(N)(CCc1ccc(OCCCc2cccc(OC(F)(F)F)c2)c(C(F)(F)F)c1)COP(=O)(O)O` (stereo not drawn) [Compound 223-2, phosphoric acid mono(2-amino-2-ethyl-4-{4-[3-(3-trifluoromethoxyphenyl)propoxy]-3-trifluoromethylphenyl}butyl)ester], for which the “Effect on heart rate as compared to the value before administration” value in data set [1] is on record as “did not reduce the heart rate of the rat by 20% or more”. Consider `CC[C@](N)(CO)CCc1ccc(OCCCc2cccc(OC(F)(F)F)c2)c(C(F)(F)F)c1.Cl` [Compound 220-2, (R)-2-amino-2-ethyl-4-{4-[3-(3-trifluoromethoxyphenyl)propoxy]-3-trifluoromethylphenyl}butanol hydrochloride], for which, in data set [2], the median effective dose (ED50) is 0.03 mg/kg. As to `Cl.NC(/C=C/c1ccc(OCCCc2ccccc2F)c(C(F)(F)F)c1)(CO)CO` [Compound 101-2, (E)-2-amino-2-(2-{4-[3-(2-fluorophenyl)propoxy]-3-trifluoromethylphenyl}vinyl)propane-1,3-diol hydrochloride], in data set [3], the ED50 came to 0.1 mg/kg. Regarding `C[C@](N)(CO)CCc1ccc(OCCCc2ccc(C(F)(F)F)cc2)c(C(F)(F)F)c1.Cl` [Compound 29-1, (R)-2-amino-2-methyl-4-{3-trifluoromethyl-4-[3-(4-trifluoromethylphenyl)propoxy]phenyl}butanol hydrochloride], the 50% effective dose (ED50) in data set [2] amounted to 0.03 mg/kg. As to `CCC(N)(CCc1ccc(OCCCc2ccc(OC(F)(F)F)cc2)c(C(F)(F)F)c1)COP(=O)(O)O` (stereo not drawn) [Compound 221-2, phosphoric acid mono(2-amino-2-ethyl-4-{4-[3-(4-trifluoromethoxyphenyl)propoxy]-3-trifluoromethylphenyl}butyl)ester], the “Effect on heart rate as compared to the value before administration” value in data set [1] is given as “did not reduce the heart rate of the rat by 20% or more”. As for `NC(/C=C/c1ccc(OCCCc2ccccc2)c(C(F)(F)F)c1)(CO)COP(=O)(O)O` (stereo not drawn) [compound 192-2, (E)-2-amino-4-[4-(3-phenylpropoxy)-3-trifluoromethylphenyl]-2-(phosphoryloxymethyl)-3-butenol], the “Effect on heart rate as compared to the value before administration” value in data set [1] is given as “did not reduce the heart rate of the rat by 20% or more”.

Consider `CC[C@](N)(CO)CCc1ccc(OCCCc2ccc(Cl)c(Cl)c2)c(C(F)(F)F)c1.Cl` [Compound 206-3, (R)-2-amino-4-{4-[3-(3,4-dichlorophenyl)propoxy]-3-trifluoromethylphenyl}-2-ethylbutanol hydrochloride], for which the median effective dose (ED50) in data set [3] was 0.02 mg/kg; in data set [2], 0.05 mg/kg.
